How the values were obtained:
[1] = system: Panc-1-Luc pancreatic tumor; experiment: Orthotopic pancreatic cancer mouse model (Panc-1-Luc); type: in vivo, SCID mice
Method: FIG. 3, Panels A-E show the therapeutic efficacy of SI-12 in an orthotopic pancreatic cancer mouse model. […] Data represent mean±SEM. *, P<0.05, **, P<0.01 by student t-test.
SI-12 was tested in pancreatic, lung, brain, and melanoma cancers. A representative example for pancreatic tumor treatment is described below. Panc-1 cells stably expressing firefly luciferase cells (Panc-1-Luc, 0.5×10^6 cells per mouse) were injected into the tail of pancreas of SCID mice (6-7 weeks). The mice were randomized into two groups based on luciferase imaging (n=8 per group). Eight days after tumor inoculation, the two groups were administered SI-12 (10 mg/kg, i.p. injection, once daily) or an equal volume of vehicle control five times per week. Tumor growth and systemic toxicity were monitored based on luciferase imaging and body weight weekly. The mice were sacrificed after eight weeks of treatment. […] At the end of the experiment, tumors were harvested and weighed. The average tumor weight in SI-12 treated mice was ˜30% of the vehicle treated counterparts (FIG. 3D).
To test whether SI-12 causes SRC-3 down-regulation in vivo, the SRC-3 levels in tumor tissues were measured by immunohistochemistry (IHC). Multiple tumor tissues (N>3) collected from both the control group and the SI-12 treated group were processed and immunohistochemically stained with an anti-SRC-3 antibody or an anti-Ki-67 antibody. […] Ki-67, a cell proliferation marker, was also immunochemically analyzed.

MDA-MB-231 tumor cells = experiment: MDA-MB-231 xenograft model (luciferase imaging); type: in vivo, Nude mice; conditions: 4 mg/kg 5 times per week, five-week period
Method: The quantitated luciferase activity is shown in the graph in FIG. 4.
SI-12 was evaluated in a MDA-MB-231 model where the MDA-MB-231 tumor cells were stably transfected with a luciferase expression vector. Nude mice had 2.5×10^5 tumor cells implanted into cleared mammary fat pads of nude mice. The progression of tumors in control and SI-12 treated animals (4 mg/kg 5 times per week) was followed by luciferase imaging of the mice over a five-week period.

CDK2/CyclinE1 = target: T1, CDK2/CyclinE1 (Homo sapiens, UniProt P24941); experiment: Kinase-Glo Luminescent Kinase Assay; type: biochemical
T1 construct: purchased Promega
Method: (§1) SI-12 was also tested for its ability to disrupt kinase activity. The effects of the compound were tested on a panel of 24 kinases using a Kinase-Glo Luminescent Kinase Assay system (Promega; Madison, Wis.). SI-12 was tested, at concentrations of 1000 nM, 50 nM, and 5 nM, for its ability to interfere with recombinant kinases in the assay system. The amount of ATP to ADP conversion in the presence of SI-12 was compared to a DMSO vehicle control. The values shown in Table 3 represent the percentage of kinase activity compared to a DMSO vehicle control.
(§2) In Table 3, “−” represents less than 20% inhibition; “+” represents from 20% to 40% inhibition; “++” represents from 40% to 60% inhibition; and “+++” represents greater than 60% inhibition.

IKKb = target: T2, IKKb (Homo sapiens, UniProt O14920); experiment: Kinase-Glo Luminescent Kinase Assay; type: biochemical
T2 construct: purchased Promega
T2 sequence (O14920 1-756): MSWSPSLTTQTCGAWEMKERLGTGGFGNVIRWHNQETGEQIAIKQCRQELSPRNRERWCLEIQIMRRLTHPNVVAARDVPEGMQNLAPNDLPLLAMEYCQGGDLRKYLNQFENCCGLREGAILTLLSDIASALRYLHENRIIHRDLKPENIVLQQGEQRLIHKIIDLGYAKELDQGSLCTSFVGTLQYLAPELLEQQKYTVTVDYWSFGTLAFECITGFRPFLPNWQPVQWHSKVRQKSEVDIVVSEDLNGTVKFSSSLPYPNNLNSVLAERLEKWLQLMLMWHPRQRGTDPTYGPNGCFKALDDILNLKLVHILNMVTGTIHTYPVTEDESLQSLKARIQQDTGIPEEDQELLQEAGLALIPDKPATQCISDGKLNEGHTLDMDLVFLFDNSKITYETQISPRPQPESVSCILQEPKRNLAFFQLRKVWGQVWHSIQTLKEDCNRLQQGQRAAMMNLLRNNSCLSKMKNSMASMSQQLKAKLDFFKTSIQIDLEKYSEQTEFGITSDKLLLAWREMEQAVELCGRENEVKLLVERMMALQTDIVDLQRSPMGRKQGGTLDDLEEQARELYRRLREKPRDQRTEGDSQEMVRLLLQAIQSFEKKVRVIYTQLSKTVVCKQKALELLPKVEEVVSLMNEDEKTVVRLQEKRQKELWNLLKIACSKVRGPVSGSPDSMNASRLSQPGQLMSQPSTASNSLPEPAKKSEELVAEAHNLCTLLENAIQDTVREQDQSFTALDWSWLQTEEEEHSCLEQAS
Method: as §1, §2

ROCK1 = target: T3, ROCK1 (Homo sapiens, UniProt Q13464); experiment: Kinase-Glo Luminescent Kinase Assay; type: biochemical
T3 construct: purchased Promega
Method: as §1, §2

BT-474 cells = experiment: IC50 in BT-474 cells, 72 hours incubation; type: cell-based
Method: (§3) The compounds described herein were synthesized as described in Example 1. The IC50 values were measured in MDA-MB-468, BT-474, and MCF-7 cells by incubating a series of concentrations of the corresponding compounds for 72 hours.
(§4) In Tables 1 and 2, “−” represents IC50 or EC50 values greater than 10 μM; “+” represents IC50 or EC50 values from greater than 1 μM to 10 μM; “++” represents IC50 or EC50 values from 0.1 μM to 1 μM; and “+++” represents IC50 or EC50 values less than 0.1 μM.

MCF-7 cells = experiment: IC50 in MCF-7 cells, 72 hours incubation; type: cell-based
Method: as §3, §4

[2] = 10 mg/kg i.p. once daily, five times per week, eight weeks

T3 sequence (Q13464 whole entry): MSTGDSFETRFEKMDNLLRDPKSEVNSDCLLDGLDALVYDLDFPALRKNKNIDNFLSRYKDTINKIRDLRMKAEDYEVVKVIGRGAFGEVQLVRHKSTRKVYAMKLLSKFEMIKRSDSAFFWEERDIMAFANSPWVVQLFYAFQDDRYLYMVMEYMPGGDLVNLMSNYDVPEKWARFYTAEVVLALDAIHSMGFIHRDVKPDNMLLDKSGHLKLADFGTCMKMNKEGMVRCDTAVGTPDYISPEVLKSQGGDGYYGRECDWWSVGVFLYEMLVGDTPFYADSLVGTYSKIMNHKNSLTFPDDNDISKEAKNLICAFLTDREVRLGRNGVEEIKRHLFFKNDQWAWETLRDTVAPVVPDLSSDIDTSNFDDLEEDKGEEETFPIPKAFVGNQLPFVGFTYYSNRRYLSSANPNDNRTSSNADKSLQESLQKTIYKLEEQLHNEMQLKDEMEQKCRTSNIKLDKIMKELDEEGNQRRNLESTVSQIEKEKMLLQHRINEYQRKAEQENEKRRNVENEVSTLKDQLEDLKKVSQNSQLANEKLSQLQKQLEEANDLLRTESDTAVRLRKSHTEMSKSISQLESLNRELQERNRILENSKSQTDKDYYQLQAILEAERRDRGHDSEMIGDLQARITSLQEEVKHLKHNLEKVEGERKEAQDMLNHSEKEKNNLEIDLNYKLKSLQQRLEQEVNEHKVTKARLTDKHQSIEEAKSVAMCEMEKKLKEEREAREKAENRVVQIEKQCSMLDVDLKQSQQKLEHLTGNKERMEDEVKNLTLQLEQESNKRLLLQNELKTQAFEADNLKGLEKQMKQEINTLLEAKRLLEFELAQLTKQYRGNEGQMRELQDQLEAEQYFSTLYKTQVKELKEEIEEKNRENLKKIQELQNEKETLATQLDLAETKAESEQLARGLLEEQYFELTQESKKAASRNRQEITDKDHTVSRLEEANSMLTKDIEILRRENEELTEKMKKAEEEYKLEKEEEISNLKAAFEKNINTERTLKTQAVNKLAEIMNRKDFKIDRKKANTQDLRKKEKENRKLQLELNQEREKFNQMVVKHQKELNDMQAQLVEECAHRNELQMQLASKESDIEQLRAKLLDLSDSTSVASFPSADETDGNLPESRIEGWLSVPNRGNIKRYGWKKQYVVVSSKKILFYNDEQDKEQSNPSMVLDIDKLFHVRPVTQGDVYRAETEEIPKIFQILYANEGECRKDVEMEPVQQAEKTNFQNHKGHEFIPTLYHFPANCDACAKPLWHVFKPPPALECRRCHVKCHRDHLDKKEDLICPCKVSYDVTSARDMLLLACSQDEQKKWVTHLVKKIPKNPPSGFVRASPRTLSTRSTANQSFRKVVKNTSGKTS

**Q.** With `CC(=NNc1nc2cc(F)c(F)cc2n1C)c1ccc(F)cn1` [SI-12] as the molecule, how does the body weight loss [1, 2] read?
**A.** The body weight loss was “minimal body weight loss”.

**Q.** What about the “pancreatic tumor growth (luciferase imaging)” value [1, 2] of the same molecule?
**A.** Its value is “significantly delayed pancreatic tumor growth”.

**Q.** What about the “average tumor weight relative to vehicle treated counterparts” value ([1]; end of experiment, after eight weeks of treatment, 10 mg/kg i.p.) of the same molecule?
**A.** The value was about 30%.

**Q.** And the “Ki-67 positive cells in tumor tissues (IHC)” value ([1]; versus control group, anti-Ki-67 antibody)?
**A.** The value was “dramatically fewer Ki-67 positive cells”.

**Q.** What about the “SRC-3 levels in tumor tissues (IHC)” value ([1]; versus vehicle treated control group, anti-SRC-3 antibody) of the same molecule?
**A.** Its value is “significantly lower than the vehicle treated control group”.

**Q.** What about the “luciferase expression at primary tumor and lung metastasis (whole body imaging)” value (MDA-MB-231 tumor cells) of the same molecule?
**A.** Its value is “reduced luciferase expression at both the sites of the primary tumor and of MDA-MB-231 metastasis to the lung”.

**Q.** What about the “tumor growth in MDA-MB-231 xenograft model” value (MDA-MB-231 tumor cells) of the same molecule?
**A.** Its value is “can inhibit tumor growth”.

**Q.** And the CDK2/CyclinE1 kinase inhibition (CDK2/CyclinE1; 5 nM)?
**A.** Its CDK2/CyclinE1 kinase inhibition is “− (less than 20% inhibition)”.

**Q.** What about the CDK2/CyclinE1 kinase inhibition (CDK2/CyclinE1; 50 nM) of the same molecule?
**A.** The CDK2/CyclinE1 kinase inhibition was “− (less than 20% inhibition)”.

**Q.** And the CDK2/CyclinE1 kinase inhibition (CDK2/CyclinE1; 1000 nM)?
**A.** Its CDK2/CyclinE1 kinase inhibition is “− (less than 20% inhibition)”.

**Q.** What about the IKKb kinase inhibition (IKKb; 5 nM) of the same molecule?
**A.** The IKKb kinase inhibition was “++ (from 40% to 60% inhibition)”.

**Q.** And the IKKb kinase inhibition (IKKb; 50 nM)?
**A.** Its IKKb kinase inhibition is “+++ (greater than 60% inhibition)”.

**Q.** What about the IKKb kinase inhibition (IKKb; 1000 nM) of the same molecule?
**A.** The IKKb kinase inhibition was “+++ (greater than 60% inhibition)”.

**Q.** What about the ROCK1 kinase inhibition (ROCK1; 5 nM) of the same molecule?
**A.** Its ROCK1 kinase inhibition is “+ (from 20% to 40% inhibition)”.

**Q.** What about the ROCK1 kinase inhibition (ROCK1; 50 nM) of the same molecule?
**A.** The ROCK1 kinase inhibition was “+ (from 20% to 40% inhibition)”.

**Q.** What about the ROCK1 kinase inhibition (ROCK1; 1000 nM) of the same molecule?
**A.** Its ROCK1 kinase inhibition is “+ (from 20% to 40% inhibition)”.

**Q.** What about the IC50 (BT-474 cells) of the same molecule?
**A.** The IC50 was under 100 nM.

**Q.** What about the IC50 (MCF-7 cells) of the same molecule?
**A.** The IC50 was under 100 nM.

Source: patent publication US11253517B2, “Small molecule regulators of steroid receptor coactivators and methods of use thereof” (BAYLOR COLLEGE OF MEDICINE, priority 2016, dated 2022)
